# Measurements published in PubChem BioAssay (NCI).
#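 How tested: cells in 96-well plates exposed to compound for 48 hours at five concentrations. GI50 = concentration required for 50% inhibition of growth. TGI marks complete inhibition of growth.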
# Columns and labels:
# Experiment in all cases: NCI tumour cell line growth inhibition, 48 h
# HL-60(TB) leukemia = test system: HL-60(TB) leukemia
# UACC-62 melanoma = test system: UACC-62 melanoma
# HCT-15 colon = test system: HCT-15 colon
# NCI-H23 lung = test system: NCI-H23 lung
# ACHN renal = test system: ACHN renal
# CAKI-1 renal = test system: CAKI-1 renal
# NCI-H226 lung = test system: NCI-H226 lung
# SK-MEL-5 melanoma = test system: SK-MEL-5 melanoma
# SNB-19 CNS = test system: SNB-19 CNS
# HT29 colon = test system: HT29 colon
# SR leukemia = test system: SR leukemia
# MALME-3M melanoma = test system: MALME-3M melanoma
# SF-539 CNS = test system: SF-539 CNS
# MDA-MB-231 breast = test system: MDA-MB-231 breast
# M14 melanoma = test system: M14 melanoma
# DU-145 prostate = test system: DU-145 prostate
# NCI-H460 lung = test system: NCI-H460 lung
# SW-620 colon = test system: SW-620 colon
# OVCAR-8 ovarian = test system: OVCAR-8 ovarian
# 786-0 renal = test system: 786-0 renal
# KM12 colon = test system: KM12 colon
# TK-10 renal = test system: TK-10 renal
# OVCAR-4 ovarian = test system: OVCAR-4 ovarian
# T-47D breast = test system: T-47D breast
# SNB-75 CNS = test system: SNB-75 CNS
# HCT-116 colon = test system: HCT-116 colon
# K-562 leukemia = test system: K-562 leukemia
# OVCAR-5 ovarian = test system: OVCAR-5 ovarian
# CCRF-CEM leukemia = test system: CCRF-CEM leukemia
# SK-OV-3 ovarian = test system: SK-OV-3 ovarian
# MCF7 breast = test system: MCF7 breast
# PC-3 prostate = test system: PC-3 prostate
# RXF 393 renal = test system: RXF 393 renal
# UO-31 renal = test system: UO-31 renal
# RPMI-8226 leukemia = test system: RPMI-8226 leukemia
# NCI-H522 lung = test system: NCI-H522 lung
# SF-268 CNS = test system: SF-268 CNS
# HOP-62 NSCLC = test system: HOP-62 NSCLC
# HCC-2998 colon = test system: HCC-2998 colon
# A549 NSCLC = test system: A549 NSCLC
# IGROV1 ovarian = test system: IGROV1 ovarian
# NCI/ADR-RES ovarian = test system: NCI/ADR-RES ovarian
# COLO 205 colon = test system: COLO 205 colon
# SF-295 CNS = test system: SF-295 CNS
# SK-MEL-28 melanoma = test system: SK-MEL-28 melanoma
# UACC-257 melanoma = test system: UACC-257 melanoma
# MDA-MB-435 = test system: MDA-MB-435
# A498 renal = test system: A498 renal
# OVCAR-3 ovarian = test system: OVCAR-3 ovarian
# HS 578T breast = test system: HS 578T breast
# MOLT-4 leukemia = test system: MOLT-4 leukemia
# SN12C renal = test system: SN12C renal
# BT-549 breast = test system: BT-549 breast
compound,measurement,setting,value
CC(=O)OC1=C2C(CC3C4CC=C5CC(OC(C)=O)CCC5(C)C4CCC23C)C2C(=O)N(Cc3ccccc3)C(=O)C2C1 (stereo unspecified),GI50,HL-60(TB) leukemia,3.65 µM
same,TGI,HL-60(TB) leukemia,17.8 µM
same,GI50,UACC-62 melanoma,4.42 µM
same,TGI,UACC-62 melanoma,34.3 µM
same,GI50,HCT-15 colon,3.09 µM
same,TGI,HCT-15 colon,> 100 µM
same,GI50,NCI-H23 lung,16.6 µM
same,TGI,NCI-H23 lung,74 µM
same,GI50,ACHN renal,9.65 µM
same,TGI,ACHN renal,> 100 µM
same,GI50,CAKI-1 renal,4.65 µM
same,TGI,CAKI-1 renal,> 100 µM
same,GI50,NCI-H226 lung,8.16 µM
same,TGI,NCI-H226 lung,> 100 µM
same,GI50,SK-MEL-5 melanoma,2.1 µM
same,TGI,SK-MEL-5 melanoma,4.79 µM
same,GI50,SNB-19 CNS,9.22 µM
same,TGI,SNB-19 CNS,> 100 µM
same,GI50,HT29 colon,3.9 µM
same,TGI,HT29 colon,24 µM
same,GI50,SR leukemia,3.62 µM
same,TGI,SR leukemia,16.6 µM
same,GI50,MALME-3M melanoma,10.5 µM
same,TGI,MALME-3M melanoma,> 100 µM
same,GI50,SF-539 CNS,3.48 µM
same,TGI,SF-539 CNS,14.4 µM
same,GI50,MDA-MB-231 breast,11.1 µM
same,TGI,MDA-MB-231 breast,72.7 µM
same,GI50,M14 melanoma,7.77 µM
same,TGI,M14 melanoma,75.3 µM
same,GI50,DU-145 prostate,32.8 µM
same,TGI,DU-145 prostate,> 100 µM
same,GI50,NCI-H460 lung,3.73 µM
same,TGI,NCI-H460 lung,31.1 µM
same,GI50,SW-620 colon,12.2 µM
same,TGI,SW-620 colon,> 100 µM
same,GI50,OVCAR-8 ovarian,6.9 µM
same,TGI,OVCAR-8 ovarian,> 100 µM
same,GI50,786-0 renal,20.5 µM
same,TGI,786-0 renal,> 100 µM
same,GI50,KM12 colon,5.98 µM
same,TGI,KM12 colon,46.8 µM
same,GI50,TK-10 renal,47.4 µM
same,TGI,TK-10 renal,> 100 µM
same,GI50,OVCAR-4 ovarian,2.33 µM
same,TGI,OVCAR-4 ovarian,9.27 µM
same,GI50,T-47D breast,3.12 µM
same,TGI,T-47D breast,20.1 µM
same,GI50,SNB-75 CNS,5.54 µM
same,TGI,SNB-75 CNS,86.5 µM
same,GI50,HCT-116 colon,3.82 µM
same,TGI,HCT-116 colon,17.2 µM
same,GI50,K-562 leukemia,4.33 µM
same,TGI,K-562 leukemia,> 100 µM
same,GI50,OVCAR-5 ovarian,50.3 µM
same,TGI,OVCAR-5 ovarian,> 100 µM
same,GI50,CCRF-CEM leukemia,3.39 µM
same,TGI,CCRF-CEM leukemia,> 100 µM
same,GI50,SK-OV-3 ovarian,17.7 µM
same,TGI,SK-OV-3 ovarian,> 100 µM
same,GI50,MCF7 breast,2.71 µM
same,TGI,MCF7 breast,15 µM
same,GI50,PC-3 prostate,4.03 µM
same,TGI,PC-3 prostate,> 100 µM
same,GI50,RXF 393 renal,4.34 µM
same,TGI,RXF 393 renal,45.3 µM
same,GI50,UO-31 renal,2.56 µM
same,TGI,UO-31 renal,8.39 µM
same,GI50,RPMI-8226 leukemia,2.78 µM
same,TGI,RPMI-8226 leukemia,9.82 µM
same,GI50,NCI-H522 lung,7.29 µM
same,TGI,NCI-H522 lung,58.7 µM
same,GI50,SF-268 CNS,19.8 µM
same,TGI,SF-268 CNS,> 100 µM
same,GI50,HOP-62 NSCLC,35.9 µM
same,TGI,HOP-62 NSCLC,> 100 µM
same,GI50,HCC-2998 colon,11.4 µM
same,TGI,HCC-2998 colon,67 µM
same,GI50,A549 NSCLC,4.33 µM
same,TGI,A549 NSCLC,34 µM
same,GI50,IGROV1 ovarian,6.85 µM
same,TGI,IGROV1 ovarian,> 100 µM
same,GI50,NCI/ADR-RES ovarian,5.53 µM
same,TGI,NCI/ADR-RES ovarian,28.2 µM
same,GI50,COLO 205 colon,8.12 µM
same,TGI,COLO 205 colon,25 µM
same,GI50,SF-295 CNS,10.8 µM
same,TGI,SF-295 CNS,> 100 µM
same,GI50,SK-MEL-28 melanoma,28.9 µM
same,TGI,SK-MEL-28 melanoma,> 100 µM
same,GI50,UACC-257 melanoma,10.9 µM
same,TGI,UACC-257 melanoma,> 100 µM
same,GI50,MDA-MB-435,14.5 µM
same,TGI,MDA-MB-435,> 100 µM
same,GI50,A498 renal,10.9 µM
same,TGI,A498 renal,43.6 µM
same,GI50,OVCAR-3 ovarian,3.31 µM
same,TGI,OVCAR-3 ovarian,12 µM
same,GI50,HS 578T breast,15.7 µM
same,TGI,HS 578T breast,> 100 µM
same,GI50,MOLT-4 leukemia,2.93 µM
same,TGI,MOLT-4 leukemia,8.37 µM
same,GI50,SN12C renal,10.9 µM
same,TGI,SN12C renal,> 100 µM
same,GI50,BT-549 breast,3.53 µM
same,TGI,BT-549 breast,13.5 µM
